{"source": "patent US11203777B2", "about": "“Method of preparing sterilized compositions for stabilization of extracellular nucleic acids” (Qiagen GmbH, priority 2015, dated 2021)", "key": {"[1]": {"tested_on": "ccfDNA level in whole blood (66 bp and 500 bp fragments of the 18S rDNA gene)", "assay": "ccfDNA stabilization in stored whole blood, real time PCR of 18S rDNA fragments in plasma", "settings": "for change of copy numbers (x fold change) of 66 bp and 500 bp fragments of the 18S rDNA gene: 6 days at room temperature, FIG. 3; for copy numbers of the 500 bp fragment of the 18S rDNA gene: caspase inhibitor approx. 5 μM in stabilized blood", "quoted_text": "Blood was drawn into Alpha BCT for stabilization of the ccfDNA level. 10 ml spray dried EDTA tubes (BD) with 1.8 mg K2EDTA per ml of whole blood served as non-stabilized negative control. Blood and reagents were mixed by inverting the tube ten times. Stabilized and non-stabilized blood samples were stored at room temperature standing in an upright position.\nWhole blood samples were centrifuged at ambient temperature for 15 min at 1.900×g. The clear plasma fraction was transferred into a fresh centrifuge tube. In a second round, plasma samples were centrifuged for 10 min at 16.000×g in case of non-stabilized EDTA-blood or for 10 min at 1.900×g in case of stabilized Alpha BCT blood. The supernatant was transferred into a new tube and used either directly for the purification of ccfDNA or stored at −20° C. until use.\nDNA from plasma was isolated with the QIAamp circulating nucleic acid kit (QIAGEN GmbH), using the protocol for purification of circulating nucleic acids from 1 ml, 2 ml, or 3 ml serum or plasma. If not stated otherwise, 2 ml of plasma was mixed with proteinase K and lysis buffer ACL, incubated for 30 min at 60° C., mixed with buffer ACB, bound on QIAamp Mini columns with the use of a QIAvac 24 Plus vacuum manifold, washed and eluted with 60 μl elution buffer AVE, according to the manufactures recommendations.\nccfDNA from 2 ml plasma was isolated with a preliminary version of the QIAsymphony Circulating DNA protocol and kit (QIAGEN). If not stated otherwise, the QIAsymphony robot mixed 2 ml of plasma with proteinase K, binding buffer and magnetic beads. Beads with bound DNA were washed three times and DNA was eluted using 60 μl elution buffer.\nTo measure the amount of ccfDNA, a real time PCR assay on Abi Prism HT7900 (Life Technologies) was performed with 3 μl of eluate. In a 20 μl assay volume using QuantiTect Multiplex PCR Kit reagents (QIAGEN GmbH), two fragments of the human 18S rDNA gene were amplified in a multiplex PCR. Total quantification was achieved by comparison with a standard curve generated with human genomic DNA diluted from 3000 to 0.3 genome equivalents (1 genome equivalent equates to around 6.6 μg of human genomic DNA).\nQuantification of the 66 bp fragment was used to reflect the total amount of 18S rDNA copies in the plasma. Quantification of the 500 bp was used to determine the amount of 18S rDNA copies which derived from apoptotic or mechanically lysed leukocytes from whole blood. […] The increase of copy numbers from the 500 bp fragment between day 0 and 3 or 6 days storage, was used as a measurement of stability efficiency.\nPAXgene Blood ccfDNA Alpha tubes were produced and sterilized by gamma irradiation with different energy levels. Samples of 10 ml whole blood from eight donors were collected in 10 ml spray dry K2EDTA tubes (non-stabilized controls) and in PAXgene Blood ccfDNA Alpha tubes. Plasma was generated from 5 ml of stabilized or non-stabilized blood samples directly after blood draw. Residual blood was stored for additional 6 days at room temperature before plasma generation. ccfDNA was purified manually from 2 ml plasma, copy numbers of 18S rDNA gene were determined in triplicates by real time PCR.\nSamples of 10 ml whole blood from eight donors were collected in 10 ml spray dry K2EDTA tubes. Directly after blood draw, non-stabilized blood samples were stabilized by addition of 1.7 ml of a ccfDNA stabilization reagent according to PCT/EP2015/055699 with or without addition of the different compounds tested for their impact on extracellular nucleic acid stabilization.\nPlasma was generated from 5 ml of stabilized blood samples directly after the blood draw (day 0)."}, "[2]": {"assay": "HPLC quantification of caspase inhibitor in stabilization reagent before and after gamma irradiation", "assay_type": "physicochemical", "settings": "for [Casp] (Pre-Irr) / [Casp] (Post-Irr): 50 ml bulk; for [Casp] (Post-Irr): 25 kGy", "experimental": "Caspase inhibitor (Q-VD-OPh) was dissolved and diluted in DMSO for generation of a standard curve. Concentrations of 7.5, 15, 30 and 60 μg/ml were used to generate the standard curve.\nStabilization reagents containing a mixture of caspase inhibitor, EDTA, DMPA and PEG were tested before and after gamma irradiation. Unique peaks for caspase inhibitor were identified and compared to the standard curve for total quantification of caspase inhibitor. The concentration of caspase inhibitor was determined before and after irradiation, and these concentrations were compared for relative quantification.\nFor the production of PAXgene Blood ccfDNA Alpha blood collection tubes (Alpha BCT), BD standard tubes for 10 ml blood draw were filled with 1.3-1.7 ml ccfDNA stabilization reagent. The exemplary stabilization reagents tested comprised a mixture of caspase inhibitor (Q-VD-OPh), K2EDTA, DMPA, PEG300 and PEG10000, according to PCT/EP2015/055699. A vacuum was applied to the tubes to allow for a 10.25 ml blood draw. Tubes were sterilized by gamma irradiation using Cobalt-60 as energetic gamma ray source in a range of 5 to 35 kGy. […]\nStabilization reagents were produced with or without the addition of radical scavengers and sterilized in bulk by gamma irradiation. The caspase inhibitor concentration was measured by HPLC before and after irradiation to determine the effect of scavenger addition on caspase inhibitor degradation during sterilization by gamma irradiation.\nStabilization reagents according to PCT/EP2015/055699 were produced with or without the addition of radical scavengers in different concentrations and with different concentrations of caspase inhibitor. PAXgene Blood ccfDNA Alpha tubes were produced by filling 1.7 ml of the respective stabilization reagent into a standard Vacutainer. Tubes were sterilized by gamma irradiation with different energy levels. The caspase inhibitor concentration was measured by HPLC before and after irradiation (see Table 7 below)."}, "[3]": {"settings": "6 donors, 5 days at room temperature, FIG. 10"}, "[4]": {"settings": "scavenger 0.5-10 mg/ml, 0.05-1% (w/v)"}, "[5]": {"settings": "scavenger 0.1-1 mg/ml, 0.01-0.1% (w/v)"}}, "note": "Residues, ends and D or L forms follow the SMILES beside them. *: point of attachment. Cbz = O=C(OCc1ccccc1)*; CH2F = FC*"}
{"compound": "O=C(OC[C@H]1O[C@@H](OC(=O)c2cc(O)c(O)c(OC(=O)c3cc(O)c(O)c(O)c3)c2)[C@H](OC(=O)c2cc(O)c(O)c(OC(=O)c3cc(O)c(O)c(O)c3)c2)[C@@H](OC(=O)c2cc(O)c(O)c(OC(=O)c3cc(O)c(O)c(O)c3)c2)[C@@H]1OC(=O)c1cc(O)c(O)c(OC(=O)c2cc(O)c(O)c(O)c2)c1)c1cc(O)c(O)c(OC(=O)c2cc(O)c(O)c(O)c2)c1", "note": "[Tannic acid]", "values": [{"measurement": "change of copy numbers (x fold change) of 66 bp and 500 bp fragments of the 18S rDNA gene", "setting": "[1]; scavenger 1 mg/ml in non-irradiated reagent, 8 donors", "result": "lead to an increased release of DNA"}]}
{"compound": "COC(=O)CC(NC(=O)OC(C)(C)C)C(=O)CF", "note": "[Boc-D-(OMe)-FMK]", "values": [{"measurement": "copy numbers of the 500 bp fragment of the 18S rDNA gene", "setting": "[1]; [3]", "result": "comparable to the fragment numbers in blood stabilized with the PAXgene Blood ccfDNA Tube"}]}
{"compound": "O=C(O)c1cc(O)c(O)c(O)c1", "note": "[Gallic acid]", "values": [{"measurement": "[Casp] (Pre-Irr)", "setting": "[2]; scavenger 500 μg/ml-2.9 mM", "result": 16.633, "unit": "µg/mL"}, {"measurement": "[Casp] (Post-Irr)", "setting": "[2]; scavenger 500 μg/ml-2.9 mM", "result": 0.5888, "unit": "µg/mL"}, {"measurement": "Protection against gamma irradiation", "setting": "[2]; scavenger 0.5-2 mg/ml, 0.2% (w/v)", "result": "none"}, {"measurement": "change of copy numbers (x fold change) of 66 bp and 500 bp fragments of the 18S rDNA gene", "setting": "[1]; scavenger 2 mg/ml in non-irradiated reagent, 8 donors", "result": "lead to an increased release of DNA"}]}
{"compound": "Cc1ncc(CO)c(CO)c1O", "note": "[vitamin B6, pyridoxine]", "values": [{"measurement": "number of 500 bp fragments of the 18S rDNA gene compared to the stabilization reagent without scavenger (irradiated)", "setting": "[1]; 2 mg/ml in reagent, irradiated (30 kGy) as well as unirradiated, 8 donors, 5 days at room temperature, FIG. 9", "result": "only half"}]}
{"compound": "CC(C)O", "note": "[Isopropanol]", "values": [{"measurement": "Protection against gamma irradiation", "setting": "[2]; scavenger 1% (v/v)", "result": "none"}, {"measurement": "[Casp] (Pre-Irr)", "setting": "[2]; scavenger 1%", "result": 16.572, "unit": "µg/mL"}, {"measurement": "[Casp] (Post-Irr)", "setting": "[2]; scavenger 1%", "result": 0.8517, "unit": "µg/mL"}]}
{"compound": "OC[C@@H](O)[C@@H](O)[C@H](O)[C@H](O)CO", "note": "[Mannitol]", "values": [{"measurement": "Protection against gamma irradiation", "setting": "[2]; scavenger 5 mg/ml, 0.5% (w/v)", "result": "none"}, {"measurement": "[Casp] (Pre-Irr)", "setting": "[2]; scavenger 0.5%", "result": 16.554, "unit": "µg/mL"}, {"measurement": "[Casp] (Post-Irr)", "setting": "[2]; scavenger 0.5%", "result": 1.0667, "unit": "µg/mL"}]}
{"compound": "CC(=O)N[C@@H](CS)C(=O)O", "note": "[N-acetyl-L-cysteine]", "values": [{"measurement": "[Casp] (Pre-Irr)", "setting": "[2]; scavenger 2 mg/ml-12 mM", "result": 16.468, "unit": "µg/mL"}, {"measurement": "[Casp] (Post-Irr)", "setting": "[2]; scavenger 2 mg/ml-12 mM", "result": 14.1849, "unit": "µg/mL"}, {"measurement": "Protection against gamma irradiation", "setting": "[2]; [4]", "result": "high"}, {"measurement": "protection of caspase inhibitors from gamma-irradiation (copy numbers of the 500 bp fragment)", "setting": "[1]; 0.5 mg/ml in reagent, 30 kGy, 6 donors, 5 days at room temperature, FIG. 10", "result": "efficiently protected the caspase inhibitors Boc-D-(OMe)-FMK and Z-VAD (OMe)-FMK from gamma-irradiation"}, {"measurement": "Effect on ccfDNA stability", "setting": "[1]; [4]", "result": "neutral"}]}
{"compound": "N[C@@H](CCC(=O)N[C@@H](CS)C(=O)NCC(=O)O)C(=O)O", "note": "[Glutathione]", "values": [{"measurement": "HPLC Testing [C-Inh]", "setting": "[2]; scavenger 0.05 mg/ml, casp-inh. 5 μM, 0 kGy", "result": 19.1, "unit": "µg/mL"}, {"measurement": "HPLC Testing [C-Inh]", "setting": "[2]; scavenger 0.05 mg/ml, casp-inh. 5 μM, 10 kGy", "result": 14.1, "unit": "µg/mL"}, {"measurement": "HPLC Testing [C-Inh]", "setting": "[2]; scavenger 0.05 mg/ml, casp-inh. 5 μM, 20 kGy", "result": 8.9, "unit": "µg/mL"}, {"measurement": "HPLC Testing [C-Inh]", "setting": "[2]; scavenger 0.05 mg/ml, casp-inh. 5 μM, 30 kGy", "result": 6.6, "unit": "µg/mL"}, {"measurement": "[Casp] (Pre-Irr)", "setting": "[2]; scavenger 100 μg/ml-320 μM", "result": 16.454, "unit": "µg/mL"}, {"measurement": "[Casp] (Post-Irr)", "setting": "[2]; scavenger 100 μg/ml-320 μM", "result": 10.4422, "unit": "µg/mL"}, {"measurement": "HPLC Testing [C-Inh]", "setting": "[2]; scavenger 0.1 mg/ml, casp-inh. 5 μM, 0 kGy", "result": 18.8, "unit": "µg/mL"}, {"measurement": "HPLC Testing [C-Inh]", "setting": "[2]; scavenger 0.1 mg/ml, casp-inh. 5 μM, 10 kGy", "result": 14.3, "unit": "µg/mL"}, {"measurement": "HPLC Testing [C-Inh]", "setting": "[2]; scavenger 0.1 mg/ml, casp-inh. 5 μM, 20 kGy", "result": 9.9, "unit": "µg/mL"}, {"measurement": "HPLC Testing [C-Inh]", "setting": "[2]; scavenger 0.1 mg/ml, casp-inh. 5 μM, 30 kGy", "result": 7.5, "unit": "µg/mL"}, {"measurement": "HPLC Testing [C-Inh]", "setting": "[2]; scavenger 0.1 mg/ml, casp-inh. 10 μM, 0 kGy", "result": 37.9, "unit": "µg/mL"}, {"measurement": "HPLC Testing [C-Inh]", "setting": "[2]; scavenger 0.1 mg/ml, casp-inh. 10 μM, 10 kGy", "result": 29.4, "unit": "µg/mL"}, {"measurement": "HPLC Testing [C-Inh]", "setting": "[2]; scavenger 0.1 mg/ml, casp-inh. 10 μM, 20 kGy", "result": 23.3, "unit": "µg/mL"}, {"measurement": "HPLC Testing [C-Inh]", "setting": "[2]; scavenger 0.1 mg/ml, casp-inh. 10 μM, 30 kGy", "result": 17.7, "unit": "µg/mL"}, {"measurement": "HPLC Testing [C-Inh]", "setting": "[2]; scavenger 0.1 mg/ml, casp-inh. 15 μM, 0 kGy", "result": 55.5, "unit": "µg/mL"}, {"measurement": "HPLC Testing [C-Inh]", "setting": "[2]; scavenger 0.1 mg/ml, casp-inh. 15 μM, 10 kGy", "result": 42.7, "unit": "µg/mL"}, {"measurement": "HPLC Testing [C-Inh]", "setting": "[2]; scavenger 0.1 mg/ml, casp-inh. 15 μM, 20 kGy", "result": 33.2, "unit": "µg/mL"}, {"measurement": "HPLC Testing [C-Inh]", "setting": "[2]; scavenger 0.1 mg/ml, casp-inh. 15 μM, 30 kGy", "result": 25.0, "unit": "µg/mL"}, {"measurement": "HPLC Testing [C-Inh]", "setting": "[2]; scavenger 0.2 mg/ml, casp-inh. 5 μM, 0 kGy", "result": 19.9, "unit": "µg/mL"}, {"measurement": "HPLC Testing [C-Inh]", "setting": "[2]; scavenger 0.2 mg/ml, casp-inh. 5 μM, 20 kGy", "result": 11.9, "unit": "µg/mL"}, {"measurement": "HPLC Testing [C-Inh]", "setting": "[2]; scavenger 0.2 mg/ml, casp-inh. 5 μM, 30 kGy", "result": 10.2, "unit": "µg/mL"}, {"measurement": "HPLC Testing [C-Inh]", "setting": "[2]; scavenger 0.5 mg/ml, casp-inh. 5 μM, 10 kGy", "result": 15.4, "unit": "µg/mL"}, {"measurement": "HPLC Testing [C-Inh]", "setting": "[2]; scavenger 0.5 mg/ml, casp-inh. 5 μM, 20 kGy", "result": 12.3, "unit": "µg/mL"}, {"measurement": "HPLC Testing [C-Inh]", "setting": "[2]; scavenger 0.5 mg/ml, casp-inh. 5 μM, 30 kGy", "result": 11.1, "unit": "µg/mL"}, {"measurement": "HPLC Testing [C-Inh]", "setting": "[2]; scavenger 1 mg/ml, casp-inh. 5 μM, 0 kGy", "result": 20.0, "unit": "µg/mL"}, {"measurement": "HPLC Testing [C-Inh]", "setting": "[2]; scavenger 1 mg/ml, casp-inh. 5 μM, 20 kGy", "result": 13.8, "unit": "µg/mL"}, {"measurement": "HPLC Testing [C-Inh]", "setting": "[2]; scavenger 1 mg/ml, casp-inh. 5 μM, 30 kGy", "result": 12.6, "unit": "µg/mL"}, {"measurement": "Protection against gamma irradiation", "setting": "[2]; [5]", "result": "high"}, {"measurement": "Effect on ccfDNA stability", "setting": "[1]; [5]", "result": "neutral"}]}
{"compound": "Cc1c(C)c2c(c(C)c1O)CCC(C)(C(=O)O)O2", "note": "(stereo not shown) [Trolox, 6-hydroxy-2,5,7,8-tetramethylchromane-2-carboxylic acid]", "values": [{"measurement": "[Casp] (Pre-Irr)", "setting": "[2]; scavenger 4 mM", "result": 16.534, "unit": "µg/mL"}, {"measurement": "[Casp] (Post-Irr)", "setting": "[2]; scavenger 4 mM", "result": 3.0195, "unit": "µg/mL"}, {"measurement": "[Casp] (Pre-Irr)", "setting": "[2]; scavenger 5 mM in DMSO", "result": 16.649, "unit": "µg/mL"}, {"measurement": "[Casp] (Post-Irr)", "setting": "[2]; scavenger 5 mM in DMSO", "result": 3.3548, "unit": "µg/mL"}]}
{"compound": "COC(=O)C[C@H](NC(=O)[C@H](C)NC(=O)[C@@H](NC(=O)OCc1ccccc1)C(C)C)C(=O)CF", "note": "[Z-VAD (OMe)-FMK, Z-Val-Ala-Asp(OMe)-FMK] (Cbz-Val-Ala-Asp(OMe)-CH2F)", "values": [{"measurement": "copy numbers of the 500 bp fragment of the 18S rDNA gene", "setting": "[1]; [3]", "result": "comparable to the fragment numbers in blood stabilized with the PAXgene Blood ccfDNA Tube"}]}
{"compound": "CCCCCCCC/C=C\\CCCCCCCC(=O)OCCOCC(OCCO)C1OCC(OCCO)C1OCCO", "note": "(stereo not shown) [Tween-80]", "values": [{"measurement": "[Casp] (Pre-Irr)", "setting": "[2]; scavenger 0.6 mM", "result": 16.550, "unit": "µg/mL"}, {"measurement": "[Casp] (Post-Irr)", "setting": "[2]; scavenger 0.6 mM", "result": 0.8856, "unit": "µg/mL"}, {"measurement": "Protection against gamma irradiation", "setting": "[2]; scavenger 0.74 mg/ml, 0.07% (v/v)", "result": "none"}]}
